# Data published in US20250066287A1, “PHASE CHANGE AROMATIC AZO COMPOUNDS, METHOD OF MANUFACTURE, AND USE AS HOMOGENOUS CATALYST” (priority 2023, published 2025).
# Values joined by “and” are separate entries in the source; they are usually repeats but may differ in a detail not shown here. Identical values can stand only once. Like-named read-outs stand apart in the source and are kept apart here.
# Tests used:
# [1] = Absorption coefficient of reactants, products and catalysts (UV-Vis); format: physicochemical
# Method: Ultraviolet-visible (UV-Vis) absorption spectra were obtained with a Cary 50 Bio UV-Vis spectrophotometer in a UV Quartz cuvette with a path length of 10 mm. Compounds were dissolved in solvents at a concentration of 0.0125 mg/ml unless otherwise specified. The UV-Vis absorption was first recorded in dark for 5 min, then samples were irradiated with a specified wavelength until no change in their absorbance was observed. Samples were irradiated with Thorlabs LEDs: M340L4 (340 nm, 2.22 μW/mm^2, 60 mW), M430L4 (430 nm, 35.3 μW/mm^2, 600 mW). […]
# [2] = Photoswitching between E and Z (UV-vis, photostationary state); format: physicochemical; conditions: dilute solution; compound 1 in acetonitrile, compound 2 in methanol
# Method: To find solvents in which the ratio between the maximum concentrations of Z and E isomers at the respective photostationary state (PSS) (i.e., r=[Z]max/[E]max) is the greatest, a solvent screening test for each compound was performed (FIGS. 21-24).
# Ultraviolet-visible (UV-Vis) absorption spectra were obtained with a Cary 50 Bio UV-Vis spectrophotometer in a UV Quartz cuvette with a path length of 10 mm. Compounds were dissolved in solvents at a concentration of 0.0125 mg/ml unless otherwise specified. The UV-Vis absorption was first recorded in dark for 5 min, then samples were irradiated with a specified wavelength until no change in their absorbance was observed. Samples were irradiated with Thorlabs LEDs: M340L4 (340 nm, 2.22 μW/mm^2, 60 mW), M430L4 (430 nm, 35.3 μW/mm^2, 600 mW).
# [3] = Thermal reversion kinetics measurements (Z-to-E); format: physicochemical; conditions: 1 in MeCN, 2 in MeOH; for τ1/2 (thermal half-life of Z isomer): Z-to-E thermal reversion at 298 K (room temperature); for ΔG^‡ / ΔH^‡ / ΔS‡: thermal isomerization of Z isomers at 298 K
# Method: Thermal reversion kinetics measurements. The thermal half-life of compounds 1 and 2 were determined by following a reported procedure (G. D. Han, et all., J. Mater. Chem. A 2016, 4, 16157-16165). A solution of compounds 1 or 2 (˜1.7×10^−5 M) were prepared in MeCN and MeOH, respectively, then irradiated at 340 nm to obtain a Z-rich solution at photostationary state (PSS), which was then heated at three different elevated temperatures (compound 1: 333 K, 338 K, 343 K; compound 2: 318 K, 323 K, 328 K) in dark.
# [4] = Kinetic tests of Henry reaction; conditions: for product yield: pre-activated Z, 24 hours; for rate constant kZ: pre-activated soluble Z
# [5] = Quantification of solubility of E and Z isomers in select solvents; conditions: for Isomer (% E): saturated solution after 340 nm irradiation
# Method: Quantification of solubility. […] The mixtures were sonicated for 5 min. The obtained suspensions were filtered with a PTFE filter to remove the excess solids. The solvents in clear filtrates were removed using a rotary evaporator and the solutes were dried under vacuum overnight.
# wherein [Z]max and [E]max are the maximum concentration of the Z-isomer and the E-isomer, respectively.
# [6] = Michael addition in acetonitrile; in 10 hours
# Method: For compound 1: To a solution of trans-β-nitrostyrene (11.1 mg, 7.5 μmol) and acetylacetone (7.6 mg, 7.5 μmol) in MeCN (0.25 mL) was added either insoluble E isomer or pre-activated Z isomer of compound 1 (5.4 mg, 0.75 μmol). Three identical samples were prepared. 0.2 mL of the solution was taken to check the product yield via ^1H NMR at each time point.
# [7] = Cycling tests of Michael addition reaction; conditions: Michael addition in acetonitrile; after the subsequent two reactions with recovered catalyst, 10 mol % loading
# [8] = Light-induced precipitation of catalysts from pristine solvent; format: physicochemical; conditions: within 10 min of 430 nm irradiation; 1 in acetonitrile, 2 in methanol
# Method: FIG. 6 and FIG. 25 illustrate the efficiencies of 430 nm induced catalyst precipitation and recovery for compounds 1 and 2, which were obtained by weighing the filtered precipitates after irradiation. […] The full recovery of the catalysts is limited by the PSS ratios of compounds at 430 nm (82% for 1- E and 84% for 2-E).
# Light-induced precipitation of catalysts. To determine light-induced precipitation of catalysts, 44 mg of compound 1 and 34 mg of compound 2 were added to 2 mL of acetonitrile and methanol, respectively. The suspensions were irradiated at 340 nm overnight to obtain clear Z solutions. Then, the solutions were irradiated at 430 nm and monitored over 10 min.
# [9] = Solvent screening for reversible solubility changes; conditions: 0.5 mg in 1 mL; irradiation of 340 nm and 430 nm
# Method: To determine solubility, 0.5 mg of compounds were added to 1 mL of common solvents (1-MeOH, 2-acetonitrile (MeCN), 3-acetone, 4-THF, 5-hexane, 6-EtOAc, 7-DMF, 8-DMSO, and 9-toluene, respectively). […] The samples with suspensions were then stirred overnight under 340 nm irradiation. […] These samples were then stirred for 4 hours under 430 nm to trigger the precipitation of the compounds.
# [10] = Cycling tests of Henry reaction; conditions: acetonitrile
# [11] = pristine azobenzene; cited from earlier work
# [12] = Henry reaction, 1 in acetonitrile, 2 in methanol
# [13] = MeCN, Z-rich after 340 nm irradiation overnight
# [14] = Toluene, Z-rich after 340 nm irradiation overnight
# [15] = EtOAc, Z-rich after 340 nm irradiation overnight
# [16] = MeOH, Z-rich after 340 nm irradiation overnight
structure (smiles),measurement,setting,value
"CC(=O)CC(C)=O [Acetylacetone, acetylacetone]",ε340 nm,[1]; MeCN,2.4 M⁻¹ cm⁻¹
same,ε340 nm,[1]; MeOH,31.1 M⁻¹ cm⁻¹
CN(CCCNC(=O)c1ccc(C(=O)NCCCN(C)CCc2ccc(/N=N/c3ccccc3)cc2)cc1)CCc1ccc(/N=N/c2ccccc2)cc1 [Compound 1-E],ε340 nm,[1]; MeCN,24004 M⁻¹ cm⁻¹ and 24004.3 M⁻¹ cm⁻¹
same,ε430 nm,[1]; MeCN,2336.5 M⁻¹ cm⁻¹
same,% E after irradiation at 430 nm (PSS),[2],82 % E
CN(CCCNC(=O)c1ccc(C(=O)NCCCN(C)CCc2ccc(/N=N\c3ccccc3)cc2)cc1)CCc1ccc(/N=N\c2ccccc2)cc1 [Compound 1-Z],τ1/2 (thermal half-life of Z isomer),[3],199 h
same,ε340 nm,[1]; MeCN,6780.1 M⁻¹ cm⁻¹
same,ε430 nm,[1]; MeCN,2857.4 M⁻¹ cm⁻¹
same,product yield,[4]; [12],about 70%
same,rate constant kZ,[4]; [12],1.37e-05 s⁻¹
CN(CCCNC(=O)c1ccc(C(=O)NCCCN(C)CCc2ccc(N=Nc3ccccc3)cc2)cc1)CCc1ccc(N=Nc2ccccc2)cc1 [Compound 1],r=[Z]max/[E]max,[5]; MeCN (acetonitrile),10.4 and 10.3
same,Solubility,"[5]; MeCN, E isomer (100% E)",2.1 g/L and 2.9 mM
same,Solubility,[5]; [13],22 g/L and 30 mM
same,Isomer (% E),[5]; MeCN,12 % E
same,r=[Z]max/[E]max,[5]; Toluene,2.8
same,Solubility,"[5]; Toluene, E isomer (100% E)",5.4 g/L and 7.5 mM
same,Solubility,[5]; [14],15 g/L and 21 mM
same,Isomer (% E),[5]; Toluene,17 % E
same,product yield of Z-rich catalyst compared to its E counterpart,[6],2.4 fold
same,τ1/2 (thermal half-life of Z isomer),[3],199 h
same,ΔG^‡,[3],25.67 kcal/mol
same,ΔH^‡,[3],23.97 kcal/mol
same,ΔS‡,[3],−23.8 J mol^−1K^−1
same,% E after irradiation at 430 nm (PSS),[2],82 % E
same,% Z after irradiation at 340 nm (PSS),[2],~88 % Z
same,product yield,[7],82%
same,% Z drop in the suspension,[8],75%
same,ideal solvent candidates for reversible solubility changes,[9],MeCN and toluene
same,yield of product,[10]; 1st Henry reaction (16 hours),56%
same,yield of product,[10]; 2nd Henry reaction (16 hours),57%
same,yield of product,[10]; third Henry reaction (24 hours),70%
same,% Z by in-situ UV-induced E→Z isomerization in the reaction medium,"[4]; Henry reaction mixture in acetonitrile, after 24-hour 340 nm irradiation",48 % Z
same,rate constant kE-UV,"[4]; Henry reaction, in-situ UV (340 nm) activated catalyst, 1 in acetonitrile, 2 in methanol",4.24e-06 s⁻¹
CN(CCCNC(=O)c1ccc(-c2ccc(C(=O)NCCCN(C)CCc3ccc(/N=N/c4ccccc4)cc3)cc2)cc1)CCc1ccc(/N=N/c2ccccc2)cc1 [Compound 2-E],ε340 nm,[1]; MeOH,25623 M⁻¹ cm⁻¹ and 25623.3 M⁻¹ cm⁻¹
same,ε430 nm,[1]; MeOH,2375.3 M⁻¹ cm⁻¹
same,% E after irradiation at 430 nm (PSS),[2],84 % E
CN(CCCNC(=O)c1ccc(-c2ccc(C(=O)NCCCN(C)CCc3ccc(/N=N\c4ccccc4)cc3)cc2)cc1)CCc1ccc(/N=N\c2ccccc2)cc1 [Compound 2-Z],τ1/2 (thermal half-life of Z isomer),[3],84 h
same,ε340 nm,[1]; MeOH,2937.1 M⁻¹ cm⁻¹
same,ε430 nm,[1]; MeOH,3632.2 M⁻¹ cm⁻¹
same,product yield,[4]; [12],85%
same,rate constant kZ,[4]; [12],2.6e-05 s⁻¹
CN(CCCNC(=O)c1ccc(-c2ccc(C(=O)NCCCN(C)CCc3ccc(N=Nc4ccccc4)cc3)cc2)cc1)CCc1ccc(N=Nc2ccccc2)cc1 [Compound 2],r=[Z]max/[E]max,[5]; EtOAc,6.0
same,Solubility,"[5]; EtOAc, E isomer (100% E)",2.4 g/L and 3.0 mM
same,Solubility,[5]; [15],14 g/L and 18 mM
same,Isomer (% E),[5]; EtOAc,14 % E
same,r=[Z]max/[E]max,[5]; MeOH (methanol),8.8
same,Solubility,"[5]; MeOH, E isomer (100% E)",1.9 g/L and 2.4 mM
same,Solubility,[5]; [16],17 g/L and 21 mM
same,Isomer (% E),[5]; MeOH,16 % E
same,τ1/2 (thermal half-life of Z isomer),[3],84 h
same,ΔG^‡,[3],25.14 kcal/mol
same,ΔH^‡,[3],18 kcal/mol
same,ΔS‡,[3],−99.7 J mol^−1K^−1
same,% E after irradiation at 430 nm (PSS),[2],84 % E
same,% Z after irradiation at 340 nm (PSS),[2],84 % Z
same,% Z drop in the suspension,[8],75%
same,ideal solvent candidates for reversible solubility changes,[9],MeOH and EtOAc
same,rate constant kE-UV,[4],1.16×10 ^−5 s^−1
CN(CCCNC(=O)c1ccc2cc(C(=O)NCCCN(C)CCc3ccc(N=Nc4ccccc4)cc3)ccc2c1)CCc1ccc(N=Nc2ccccc2)cc1 [Compound 3],r=[Z]max/[E]max,[5]; Acetone,5.7
same,Solubility,"[5]; Acetone, E isomer (100% E)",3.8 g/L and 4.9 mM
same,Isomer (% E),[5]; Acetone,14 % E
same,r=[Z]max/[E]max,[5]; MeOH (methanol),4.0
same,Solubility,"[5]; MeOH, E isomer (100% E)",3.9 g/L and 5.0 mM
same,Solubility,[5]; [16],16 g/L and 20 mM
same,Isomer (% E),[5]; MeOH,27 % E
same,ideal solvent candidates for reversible solubility changes,[9],MeOH and acetone
CN(CCCNC(=O)CCCC#CC#CCCCC(=O)NCCCN(C)CCc1ccc(N=Nc2ccccc2)cc1)CCc1ccc(N=Nc2ccccc2)cc1 [Compound 4],r=[Z]max/[E]max,[5]; EtOAc,9.4
same,Solubility,"[5]; EtOAc, E isomer (100% E)",2.6 g/L and 3.3 mM
same,Solubility,[5]; [15],24 g/L and 31 mM
same,Isomer (% E),[5]; EtOAc,23 % E
same,r=[Z]max/[E]max,[5]; MeCN (acetonitrile),10.0
same,Solubility,"[5]; MeCN, E isomer (100% E)",3.3 g/L and 4.3 mM
same,Solubility,[5]; [13],33 g/L and 43 mM
same,Isomer (% E),[5]; MeCN,9 % E
same,r=[Z]max/[E]max,[5]; Toluene,13.9
same,Solubility,"[5]; Toluene, E isomer (100% E)",2.6 g/L and 3.3 mM
same,Solubility,[5]; [14],36 g/L and 46 mM
same,Isomer (% E),[5]; Toluene,55 % E
same,ideal solvent candidates for reversible solubility changes,[9],no solvent is ideal
"O=Cc1ccc([N+](=O)[O-])cc1 [Nitrobenzaldehyde, 4-nitrobenzaldehyde]",ε340 nm,[1]; MeCN,323.3 M⁻¹ cm⁻¹
same,ε340 nm,"[1]; MeCN, listed as 4-nitrobenzaldehyde",323 M⁻¹ cm⁻¹
same,ε340 nm,[1]; MeOH,312.5 M⁻¹ cm⁻¹
"CC[N+](=O)[O-] [Nitroethane, nitroethane]",ε340 nm,[1]; MeCN,0.3 M⁻¹ cm⁻¹
same,ε340 nm,[1]; MeOH,1.3 M⁻¹ cm⁻¹
"O=[N+]([O-])/C=C/c1ccccc1 [Nitrostyrene, trans-β-nitrostyrene]",ε340 nm,[1]; MeCN,11327.3 M⁻¹ cm⁻¹
same,ε340 nm,"[1]; MeCN, listed as trans-β-nitrostyrene",11327 M⁻¹ cm⁻¹
same,ε340 nm,[1]; MeOH,15390.7 M⁻¹ cm⁻¹
c1ccc(N=Nc2ccccc2)cc1 [azobenzene],% E at 430 nm (photoswitching property),[11],83 % E
